Values after ≈ are worked out from the molar mass of the structure shown.
What was measured:
[1] = target: T1, Nucleotide-binding oligomerization domain-containing protein 1 (Mus musculus, UniProt Q8BHB0); assay: Antagonist activity at mouse NOD1 expressed in HEK-Blue cells assessed as decrease in SEAP secretion incubated for 3 hrs followed by C12-iE-DAP stimulation for 20 hrs by spectrophotometry; type: cell-based, HEK-Blue mNOD1
T1 sequence (Q8BHB0 whole entry): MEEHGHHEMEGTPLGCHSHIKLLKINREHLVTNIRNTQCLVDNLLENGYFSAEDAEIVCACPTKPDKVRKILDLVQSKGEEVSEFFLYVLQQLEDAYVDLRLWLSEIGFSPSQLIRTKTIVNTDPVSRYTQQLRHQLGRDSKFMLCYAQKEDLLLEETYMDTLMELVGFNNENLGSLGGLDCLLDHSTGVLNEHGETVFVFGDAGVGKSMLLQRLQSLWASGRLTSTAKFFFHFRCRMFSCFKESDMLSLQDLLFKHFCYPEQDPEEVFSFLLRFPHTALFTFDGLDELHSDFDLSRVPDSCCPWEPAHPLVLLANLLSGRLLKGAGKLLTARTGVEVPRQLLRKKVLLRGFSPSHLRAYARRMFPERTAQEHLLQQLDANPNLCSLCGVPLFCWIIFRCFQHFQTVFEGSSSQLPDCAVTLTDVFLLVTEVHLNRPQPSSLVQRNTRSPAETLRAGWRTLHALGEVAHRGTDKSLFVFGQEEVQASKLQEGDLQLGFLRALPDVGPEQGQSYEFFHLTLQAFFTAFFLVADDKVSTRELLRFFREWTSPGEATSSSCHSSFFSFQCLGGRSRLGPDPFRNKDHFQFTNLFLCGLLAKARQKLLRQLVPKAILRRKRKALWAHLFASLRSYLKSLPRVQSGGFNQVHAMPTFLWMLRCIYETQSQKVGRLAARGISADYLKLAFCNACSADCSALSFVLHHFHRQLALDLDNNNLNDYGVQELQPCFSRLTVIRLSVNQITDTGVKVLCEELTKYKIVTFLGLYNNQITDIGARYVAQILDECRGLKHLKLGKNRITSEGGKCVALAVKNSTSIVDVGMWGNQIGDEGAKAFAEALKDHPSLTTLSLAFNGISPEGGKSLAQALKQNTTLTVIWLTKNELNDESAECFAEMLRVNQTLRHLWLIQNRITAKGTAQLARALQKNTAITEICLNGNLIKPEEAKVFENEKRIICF

[2] = Solubility of compound in phosphate buffer at pH 7.2 to 7.4; type: physicochemical
[3] = Metabolic stability in mouse liver microsomes assessed as half life at 1.25 uM preincubated for 5 mins followed by NADPH addition measured upto 120 mins by LC-MS/MS analysis; type: ADME, Microsome; settings: time < 125 min
[4] = Metabolic stability in mouse liver microsomes assessed as intrinsic clearance at 1.25 uM preincubated for 5 mins followed by NADPH addition measured upto 120 mins by LC-MS/MS analysis; type: ADME, Microsome; settings: time < 125 min, read-out: CLH
[5] = Metabolic stability in human liver microsomes assessed as intrinsic clearance at 1.25 uM preincubated for 5 mins followed by NADPH addition measured upto 120 mins by LC-MS/MS analysis; type: ADME, Microsome; settings: time < 125 min, read-out: CLH
[6] = Metabolic stability in mouse hepatocytes assessed as intrinsic clearance measured per million cells at 10 uM measured after 120 mins by LC-MS analysis; type: ADME, cell-based, Hepatocyte; settings: 2 h
[7] = Metabolic stability in human hepatocytes assessed as half life at 10 uM measured after 120 mins by LC-MS analysis; type: ADME, cell-based, Hepatocyte
[8] = Metabolic stability in human hepatocytes assessed as intrinsic clearance measured per million cells at 10 uM measured after 120 mins by LC-MS analysis; type: ADME, cell-based, Hepatocyte; settings: read-out: CLH
[9] = Metabolic stability in mouse hepatocytes assessed as half life at 10 uM measured after 120 mins by LC-MS analysis; type: ADME, cell-based, Hepatocyte
[10] = Metabolic stability in mouse liver microsomes assessed as hepatic clearance at 1.25 uM preincubated for 5 mins followed by NADPH addition measured upto 120 mins by LC-MS/MS analysis; type: ADME, Microsome; settings: time < 125 min
[11] = target: T2, Nucleotide-binding oligomerization domain-containing protein 1 (Homo sapiens, UniProt Q9Y239); assay: Antagonist activity at human NOD1 expressed in HEK-Blue cells assessed as decrease in SEAP secretion incubated for 3 hrs followed by C12-iE-DAP stimulation for 20 hrs by spectrophotometry; type: cell-based, HEK-Blue hNOD1
T2 sequence (Q9Y239 whole entry): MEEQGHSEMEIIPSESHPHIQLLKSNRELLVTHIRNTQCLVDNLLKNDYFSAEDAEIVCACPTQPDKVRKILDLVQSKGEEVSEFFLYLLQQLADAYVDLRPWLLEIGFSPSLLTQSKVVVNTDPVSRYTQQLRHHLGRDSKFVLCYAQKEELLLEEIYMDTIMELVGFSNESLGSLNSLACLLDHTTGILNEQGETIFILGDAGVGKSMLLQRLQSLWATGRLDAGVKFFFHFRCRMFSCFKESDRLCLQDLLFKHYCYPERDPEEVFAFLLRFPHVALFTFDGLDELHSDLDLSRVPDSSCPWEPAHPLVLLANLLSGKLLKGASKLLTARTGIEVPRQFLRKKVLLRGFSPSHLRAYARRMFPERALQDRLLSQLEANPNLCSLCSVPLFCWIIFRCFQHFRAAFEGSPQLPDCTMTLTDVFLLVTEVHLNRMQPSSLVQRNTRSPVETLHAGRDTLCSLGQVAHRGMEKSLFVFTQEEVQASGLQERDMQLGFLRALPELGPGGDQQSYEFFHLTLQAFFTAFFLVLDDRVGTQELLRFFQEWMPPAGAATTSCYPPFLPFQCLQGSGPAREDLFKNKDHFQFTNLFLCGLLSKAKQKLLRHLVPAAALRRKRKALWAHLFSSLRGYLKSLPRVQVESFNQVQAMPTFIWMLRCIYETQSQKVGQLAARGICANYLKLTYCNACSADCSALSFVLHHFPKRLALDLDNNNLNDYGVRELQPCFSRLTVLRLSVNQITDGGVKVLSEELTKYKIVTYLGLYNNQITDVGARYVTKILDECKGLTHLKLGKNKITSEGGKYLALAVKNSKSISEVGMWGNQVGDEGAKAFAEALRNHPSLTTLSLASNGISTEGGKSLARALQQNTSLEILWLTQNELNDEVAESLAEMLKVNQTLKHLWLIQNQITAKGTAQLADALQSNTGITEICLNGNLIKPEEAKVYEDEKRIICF

[12] = Metabolic stability in human liver microsomes assessed as hepatic clearance at 1.25 uM preincubated for 5 mins followed by NADPH addition measured upto 120 mins by LC-MS/MS analysis; type: ADME, Microsome; settings: time < 125 min
[13] = target: T3, Nucleotide-binding oligomerization domain-containing protein 1 (Mus musculus) (UniProt Q8BHB0); assay: Antagonist activity at mouse NOD1 expressed in HEK-Blue cells assessed as decrease in SEAP secretion at 1 uM incubated for 3 hrs followed by C12-iE-DAP stimulation for 20 hrs by spectrophotometry relative to control; type: cell-based; settings: HEK-Blue mNOD1, filed as antagonist, time 23.0 hrs
T3 sequence (whole entry): T1 sequence (Q8BHB0 whole entry)

[14] = Metabolic stability in human liver microsomes assessed as half life at 1.25 uM preincubated for 5 mins followed by NADPH addition measured upto 120 mins by LC-MS/MS analysis; type: ADME, Microsome; settings: time < 125 min
[15] = Metabolic stability in human hepatocytes assessed as hepatic clearance at 10 uM measured after 120 mins by LC-MS analysis; type: ADME, cell-based, Hepatocyte
[16] = target: T4, Nucleotide-binding oligomerization domain-containing protein 2 (Homo sapiens, UniProt Q9HC29); assay: Antagonist activity at human NOD2 expressed in HEK293 cells assessed as decrease in MDP-stimulated IL-8 release incubated for 24 hrs by fluorescence based assay; type: cell-based
T4 sequence (Q9HC29 whole entry, the tested form may be a part): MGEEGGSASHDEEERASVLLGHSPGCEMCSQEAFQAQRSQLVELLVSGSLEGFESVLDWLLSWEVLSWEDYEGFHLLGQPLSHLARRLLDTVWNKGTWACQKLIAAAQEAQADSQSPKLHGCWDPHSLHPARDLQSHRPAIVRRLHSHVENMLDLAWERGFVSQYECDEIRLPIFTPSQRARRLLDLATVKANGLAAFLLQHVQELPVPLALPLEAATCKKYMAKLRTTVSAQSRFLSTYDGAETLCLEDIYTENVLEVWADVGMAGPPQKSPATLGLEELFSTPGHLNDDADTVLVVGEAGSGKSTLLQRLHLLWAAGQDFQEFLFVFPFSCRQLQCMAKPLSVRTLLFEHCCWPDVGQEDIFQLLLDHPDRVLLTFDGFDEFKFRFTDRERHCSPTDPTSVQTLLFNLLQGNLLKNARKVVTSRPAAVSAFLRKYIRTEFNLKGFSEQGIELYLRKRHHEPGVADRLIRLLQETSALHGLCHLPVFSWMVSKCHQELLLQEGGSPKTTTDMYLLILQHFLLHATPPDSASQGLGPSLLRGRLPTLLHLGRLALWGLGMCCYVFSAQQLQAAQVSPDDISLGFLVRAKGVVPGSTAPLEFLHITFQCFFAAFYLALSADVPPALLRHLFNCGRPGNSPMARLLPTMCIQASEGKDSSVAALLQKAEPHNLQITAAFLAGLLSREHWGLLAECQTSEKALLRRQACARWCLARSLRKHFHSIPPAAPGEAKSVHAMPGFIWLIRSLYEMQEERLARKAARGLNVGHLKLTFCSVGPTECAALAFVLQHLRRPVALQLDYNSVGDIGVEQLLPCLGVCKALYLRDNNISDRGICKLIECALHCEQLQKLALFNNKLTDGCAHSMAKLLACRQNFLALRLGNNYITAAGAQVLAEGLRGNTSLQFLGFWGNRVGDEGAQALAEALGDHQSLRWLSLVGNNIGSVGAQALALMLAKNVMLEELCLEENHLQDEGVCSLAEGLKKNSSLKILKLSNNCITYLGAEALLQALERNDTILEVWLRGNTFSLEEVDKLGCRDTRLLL

[17] = target: T3, Nucleotide-binding oligomerization domain-containing protein 1 (Mus musculus); assay: Antagonist activity at mouse NOD1 expressed in HEK-Blue cells assessed as decrease in SEAP secretion at 5 uM incubated for 3 hrs followed by C12-iE-DAP stimulation for 20 hrs by spectrophotometry relative to control; type: cell-based; settings: HEK-Blue mNOD1, filed as antagonist, time 23.0 hrs
[18] = target: T4, Nucleotide-binding oligomerization domain-containing protein 2; assay: Inhibition of human NOD2 at 1 uM relative to control
[19] = target: Toll-like receptor 4 (Homo sapiens) (UniProt O00206); assay: Inhibition of human TLR4 at 1 uM relative to control
Chain of Toll-like receptor 4 (Homo sapiens) (O00206 whole entry): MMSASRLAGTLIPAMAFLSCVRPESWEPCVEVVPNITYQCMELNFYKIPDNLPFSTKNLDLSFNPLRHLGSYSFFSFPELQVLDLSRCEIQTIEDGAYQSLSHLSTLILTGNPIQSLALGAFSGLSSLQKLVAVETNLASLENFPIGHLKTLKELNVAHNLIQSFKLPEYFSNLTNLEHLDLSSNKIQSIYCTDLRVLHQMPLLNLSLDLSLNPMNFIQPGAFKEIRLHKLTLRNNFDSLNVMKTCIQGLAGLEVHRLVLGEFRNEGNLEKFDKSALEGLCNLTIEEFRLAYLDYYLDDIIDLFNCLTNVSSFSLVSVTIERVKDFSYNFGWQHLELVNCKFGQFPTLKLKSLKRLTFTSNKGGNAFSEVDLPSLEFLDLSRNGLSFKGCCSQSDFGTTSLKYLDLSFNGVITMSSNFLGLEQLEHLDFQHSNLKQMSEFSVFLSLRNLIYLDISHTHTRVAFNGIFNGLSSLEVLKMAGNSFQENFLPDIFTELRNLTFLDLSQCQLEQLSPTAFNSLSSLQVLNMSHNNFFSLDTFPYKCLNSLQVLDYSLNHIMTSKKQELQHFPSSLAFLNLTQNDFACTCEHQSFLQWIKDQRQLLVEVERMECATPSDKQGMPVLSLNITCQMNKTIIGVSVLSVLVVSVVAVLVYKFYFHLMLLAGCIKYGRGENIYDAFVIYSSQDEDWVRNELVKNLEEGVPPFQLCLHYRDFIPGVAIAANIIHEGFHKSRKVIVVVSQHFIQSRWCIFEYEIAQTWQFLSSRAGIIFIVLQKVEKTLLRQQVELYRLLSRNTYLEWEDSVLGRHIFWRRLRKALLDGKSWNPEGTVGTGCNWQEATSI

[20] = target: Receptor-interacting serine/threonine-protein kinase 2 (Homo sapiens) (UniProt O43353); assay: Inhibition of RIP2 (unknown origin) at 10 uM relative to control
Chain of Receptor-interacting serine/threonine-protein kinase 2 (Homo sapiens) (O43353 whole entry, the tested form may be a part): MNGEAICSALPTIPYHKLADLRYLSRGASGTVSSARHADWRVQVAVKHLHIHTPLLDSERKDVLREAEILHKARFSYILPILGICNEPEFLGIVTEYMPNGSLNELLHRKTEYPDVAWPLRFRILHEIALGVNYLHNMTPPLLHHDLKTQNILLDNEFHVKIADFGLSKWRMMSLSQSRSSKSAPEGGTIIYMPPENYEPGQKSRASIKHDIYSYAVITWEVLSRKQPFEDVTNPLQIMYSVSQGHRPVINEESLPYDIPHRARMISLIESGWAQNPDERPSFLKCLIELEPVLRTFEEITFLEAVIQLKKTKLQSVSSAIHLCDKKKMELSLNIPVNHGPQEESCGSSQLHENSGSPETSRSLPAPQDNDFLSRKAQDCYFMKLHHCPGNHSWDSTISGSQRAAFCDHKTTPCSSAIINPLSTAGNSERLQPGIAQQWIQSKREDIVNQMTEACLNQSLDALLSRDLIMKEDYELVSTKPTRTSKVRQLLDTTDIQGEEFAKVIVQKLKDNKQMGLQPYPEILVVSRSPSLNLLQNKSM

[21] = target: T5, Nucleotide-binding oligomerization domain-containing protein 2 (Mus musculus) (UniProt Q8K3Z0); assay: Inhibition of mouse NOD2 at 1 uM relative to control
T5 sequence (whole entry): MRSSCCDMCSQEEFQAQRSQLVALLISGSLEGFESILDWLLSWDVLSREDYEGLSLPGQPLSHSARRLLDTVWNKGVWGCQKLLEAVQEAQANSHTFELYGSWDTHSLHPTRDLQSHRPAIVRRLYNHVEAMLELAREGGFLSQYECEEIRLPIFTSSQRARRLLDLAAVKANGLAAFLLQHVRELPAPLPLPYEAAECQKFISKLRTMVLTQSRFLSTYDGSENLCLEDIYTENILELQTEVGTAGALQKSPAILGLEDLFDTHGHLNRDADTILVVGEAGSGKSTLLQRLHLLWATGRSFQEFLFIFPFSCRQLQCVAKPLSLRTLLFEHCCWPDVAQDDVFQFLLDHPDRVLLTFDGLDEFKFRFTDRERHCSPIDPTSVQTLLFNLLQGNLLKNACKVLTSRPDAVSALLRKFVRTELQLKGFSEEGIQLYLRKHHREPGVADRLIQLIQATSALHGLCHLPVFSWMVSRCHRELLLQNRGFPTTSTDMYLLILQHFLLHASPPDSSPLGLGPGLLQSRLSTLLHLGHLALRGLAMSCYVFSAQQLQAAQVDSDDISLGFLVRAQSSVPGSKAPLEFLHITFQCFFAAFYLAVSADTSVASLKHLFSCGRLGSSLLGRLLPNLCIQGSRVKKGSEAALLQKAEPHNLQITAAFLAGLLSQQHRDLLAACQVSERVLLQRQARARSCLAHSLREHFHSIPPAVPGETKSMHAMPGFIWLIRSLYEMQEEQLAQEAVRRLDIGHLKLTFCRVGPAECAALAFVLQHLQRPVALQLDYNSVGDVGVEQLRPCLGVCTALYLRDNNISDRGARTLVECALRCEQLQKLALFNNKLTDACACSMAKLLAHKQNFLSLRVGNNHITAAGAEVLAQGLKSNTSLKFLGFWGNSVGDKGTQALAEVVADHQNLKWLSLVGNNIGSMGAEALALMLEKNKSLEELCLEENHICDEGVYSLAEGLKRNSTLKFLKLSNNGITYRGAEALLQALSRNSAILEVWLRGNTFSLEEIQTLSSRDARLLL

IC50 [1] | half-life at 1.25 µM [3] | microsomal CLint at 1.25 µM [4] | microsomal CLint at 1.25 µM [5] | CLhep predicted at 1.25 µM [10] | IC50 [11] | CLhep predicted at 1.25 µM [12] | inhibition [13] | half-life at 1.25 µM [14] | inhibition [17] | Compound | other results
66 nM | 20.6 min | – | – | – | – | – | – | – | – | CS(=O)(=O)c1ccc2nc(Cl)n(-c3ccc(Cl)c(NS(=O)(=O)c4ccccc4C#N)c3)c(=O)c2c1 | solubility [2]: 34.2 µg/mL (≈ 62.2 µM)
344 nM | > 186 min | < 7.4 µL/min/mg | < 7.4 µL/min/mg | < 22.1 mL/min/kg | 4.1 nM | < 6.1 mL/min/kg | 83.9% | > 186 min | – | O=c1c2ccncc2nc(Cl)n1-c1ccc(Cl)c(NS(=O)(=O)c2ccccc2F)c1 | CLH [6]: 307.2 µL/min; half-life at 10 µM [7]: 11.6 min; hepatocyte CLint at 10 µM [8]: 59.5 µL/min/1e6 cells; half-life at 10 µM [9]: 2.3 min; CLhep predicted at 10 µM [15]: 18.6 mL/min/kg
6920 nM | – | – | – | – | – | – | – | – | 49.4% | Cc1nc2ccc(Cl)cc2c(=O)n1-c1ccc(Cl)c(NS(=O)(=O)c2ccccc2F)c1 | IC50 [16]: > 20000 nM; inhibition [18]: < 10%
187 nM | 13.9 min | 99.9 µL/min/mg | 49.4 µL/min/mg | 73.2 mL/min/kg | – | 15.2 mL/min/kg | 84.3% | 28 min | – | O=c1c2cc(Cl)cnc2nc(Cl)n1-c1ccc(Cl)c(NS(=O)(=O)c2ccccc2F)c1 | –
118 nM | 53 min | 26.2 µL/min/mg | 12 µL/min/mg | 48 mL/min/kg | 1.8 nM | 8.3 mL/min/kg | 85.6% | 115 min | – | O=c1c2cc(Cl)ncc2nc(Cl)n1-c1ccc(Cl)c(NS(=O)(=O)c2ccccc2F)c1 | –
2630 nM | – | – | – | – | 40 nM | – | 42.7% | – | 67.4% | O=c1c2cc(Cl)ccc2nc(Cl)n1-c1ccc(Cl)c(NS(=O)(=O)c2ccccc2F)c1 | –
77 nM | – | – | – | – | 5.2 nM | – | 83.7% | – | – | O=c1c2ccncc2nc(Cl)n1-c1ccc(Cl)c(NS(=O)(=O)c2c(F)cccc2F)c1 | inhibition [19]: < 10%; inhibition [20]: < 10%; solubility [2]: 5.7 µg/mL (≈ 11.8 µM); inhibition [18]: < 10%; inhibition [21]: < 10%
– | – | – | – | – | – | – | – | – | – | Cc1nc2ccc(NC(=O)c3cccc(NS(=O)(=O)c4ccc(F)cc4)c3)cc2s1 | IC50 [16]: > 50000 nM
193 nM | 39.1 min | 35.4 µL/min/mg | 13.4 µL/min/mg | 54.7 mL/min/kg | 11 nM | 8.9 mL/min/kg | 84.6% | 104 min | – | O=c1c2nc(Cl)ccc2nc(Cl)n1-c1ccc(Cl)c(NS(=O)(=O)c2ccccc2F)c1 | –
7210 nM | – | – | – | – | 27 nM | – | – | – | 53.3% | C=CC(=O)Nc1nc2ccc(Cl)cc2c(=O)n1-c1ccc(Cl)c(NS(=O)(=O)c2ccccc2F)c1 | –
